In US20050192279A1, “Pyridazinones as antagonists of alpha4 integrins” (priority 2004, published 2005):
Like-named read-outs stand apart in the source and are kept apart here.

Legend:
human α4β7 integrin = biological target: T1, human α4β7 integrin (Homo sapiens, UniProt P13612+P26010); assay: α4β7-K562 Cell Adhesion Assay (α4β7 Mediated Adhesion/MAdCAM-1); assay type: cell-based
T1 construct: expressed in transfected cells; host or cells: K562 cells, stably transfected
T1 sequence (P13612 34-1032): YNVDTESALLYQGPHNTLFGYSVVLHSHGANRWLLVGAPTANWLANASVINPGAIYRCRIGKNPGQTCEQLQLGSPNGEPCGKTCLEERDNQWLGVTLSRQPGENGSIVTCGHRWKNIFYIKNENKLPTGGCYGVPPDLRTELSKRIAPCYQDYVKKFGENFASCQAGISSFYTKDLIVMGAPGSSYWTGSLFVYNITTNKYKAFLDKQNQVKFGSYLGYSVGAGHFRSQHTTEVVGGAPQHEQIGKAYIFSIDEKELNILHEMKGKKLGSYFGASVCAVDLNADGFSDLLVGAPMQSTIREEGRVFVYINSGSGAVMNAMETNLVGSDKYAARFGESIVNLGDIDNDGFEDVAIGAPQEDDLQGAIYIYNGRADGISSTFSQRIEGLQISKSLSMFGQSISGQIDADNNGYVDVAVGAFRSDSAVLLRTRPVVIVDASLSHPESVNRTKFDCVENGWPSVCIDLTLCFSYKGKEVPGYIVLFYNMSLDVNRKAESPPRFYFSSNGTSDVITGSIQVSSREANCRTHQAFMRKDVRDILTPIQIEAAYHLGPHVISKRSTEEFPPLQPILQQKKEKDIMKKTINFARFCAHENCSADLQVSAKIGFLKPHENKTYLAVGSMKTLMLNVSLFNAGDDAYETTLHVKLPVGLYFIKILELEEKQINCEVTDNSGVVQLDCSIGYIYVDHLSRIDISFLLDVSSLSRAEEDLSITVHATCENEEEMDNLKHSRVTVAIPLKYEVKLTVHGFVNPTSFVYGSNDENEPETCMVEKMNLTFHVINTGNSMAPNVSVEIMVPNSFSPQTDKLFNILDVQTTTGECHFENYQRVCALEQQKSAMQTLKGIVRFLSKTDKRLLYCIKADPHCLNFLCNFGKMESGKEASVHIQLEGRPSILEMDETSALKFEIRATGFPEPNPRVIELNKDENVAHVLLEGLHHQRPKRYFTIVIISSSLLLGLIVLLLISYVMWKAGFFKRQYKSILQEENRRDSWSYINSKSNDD
T1 sequence (P26010 20-798): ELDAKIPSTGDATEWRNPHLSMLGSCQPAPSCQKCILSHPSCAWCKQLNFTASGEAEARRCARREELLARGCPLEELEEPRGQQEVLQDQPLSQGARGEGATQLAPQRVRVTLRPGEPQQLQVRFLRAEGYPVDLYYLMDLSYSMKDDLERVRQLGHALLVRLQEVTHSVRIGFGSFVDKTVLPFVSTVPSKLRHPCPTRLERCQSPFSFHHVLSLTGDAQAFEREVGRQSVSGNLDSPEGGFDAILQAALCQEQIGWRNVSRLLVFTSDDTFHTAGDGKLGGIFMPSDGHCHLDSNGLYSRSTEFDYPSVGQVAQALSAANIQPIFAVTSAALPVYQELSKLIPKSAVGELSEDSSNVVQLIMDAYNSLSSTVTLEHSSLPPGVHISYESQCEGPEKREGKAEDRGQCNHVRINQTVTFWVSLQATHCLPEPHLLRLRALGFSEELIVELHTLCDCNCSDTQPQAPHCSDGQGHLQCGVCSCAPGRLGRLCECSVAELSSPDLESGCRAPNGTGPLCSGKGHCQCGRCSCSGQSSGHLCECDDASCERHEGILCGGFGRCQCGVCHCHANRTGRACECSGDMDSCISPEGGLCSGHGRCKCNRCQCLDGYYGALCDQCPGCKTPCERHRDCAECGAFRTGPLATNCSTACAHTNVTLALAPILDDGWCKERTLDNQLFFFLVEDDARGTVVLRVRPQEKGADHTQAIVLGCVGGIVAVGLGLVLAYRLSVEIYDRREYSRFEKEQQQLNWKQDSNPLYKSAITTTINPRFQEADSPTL
In short: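 Anti-FLAG plates coated 1 h at 4° C with FLAG-hMAdCAM-1 in PBS pH 7.4, 1% BSA, 1 mM Mn2+. Stably transfected K562 cells expressing human α4β7, labelled with CFDA-SE, adhered with compound 1 h at room temperature. After four washes, bound cells lysed in 0.1 M NaOH for fluorescence read-out.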

α4β1 = biological target: T2, α4β1 (Homo sapiens, UniProt P05556+P13612); assay: Ramos Cell Adhesion Assay (α4β1 Mediated Adhesion/VCAM-1); assay type: cell-based
T2 construct: Ramos Cell Adhesion Assay (α4β1 Mediated Adhesion/VCAM-1); endogenous in cells; host or cells: Ramos cells
T2 sequence (P05556 21-798, one chain of several): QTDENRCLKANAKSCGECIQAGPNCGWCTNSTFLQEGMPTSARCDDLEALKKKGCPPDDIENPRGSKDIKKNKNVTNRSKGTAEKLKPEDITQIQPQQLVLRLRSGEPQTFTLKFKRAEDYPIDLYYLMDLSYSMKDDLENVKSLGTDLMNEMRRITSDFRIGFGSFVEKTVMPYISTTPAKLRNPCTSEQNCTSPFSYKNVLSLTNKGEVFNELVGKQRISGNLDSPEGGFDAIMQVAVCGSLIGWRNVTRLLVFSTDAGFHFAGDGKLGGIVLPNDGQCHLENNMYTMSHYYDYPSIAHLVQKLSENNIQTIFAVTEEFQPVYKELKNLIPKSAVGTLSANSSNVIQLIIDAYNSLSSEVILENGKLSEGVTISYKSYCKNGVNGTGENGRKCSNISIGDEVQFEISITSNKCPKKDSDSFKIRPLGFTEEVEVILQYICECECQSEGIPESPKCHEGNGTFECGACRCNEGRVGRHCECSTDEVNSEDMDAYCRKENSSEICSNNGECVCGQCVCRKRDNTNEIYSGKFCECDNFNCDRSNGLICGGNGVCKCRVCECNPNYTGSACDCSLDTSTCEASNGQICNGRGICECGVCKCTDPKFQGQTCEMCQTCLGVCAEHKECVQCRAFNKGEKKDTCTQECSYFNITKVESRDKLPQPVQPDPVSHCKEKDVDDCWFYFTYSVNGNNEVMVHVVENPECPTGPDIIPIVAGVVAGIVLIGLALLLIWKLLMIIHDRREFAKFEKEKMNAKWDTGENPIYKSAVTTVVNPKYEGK
In short: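 Plates coated overnight at 4° C with recombinant hVCAM-1 at 4.0 μg/mL, pH 9.0, then blocked in PBS/1% BSA. Calcein AM-labeled Ramos cells added with compounds and left to adhere 1 h at room temperature; after washing, cells lysed in 1 M Tris pH 8.0/1% SDS.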

[1] = α4β7-K562 cell adhesion to hMAdCAM-1, read-out: α4β7 IC50
[2] = Ramos cell adhesion to hVCAM-1, read-out: α4β1 IC50

Row | Compound | IC50 (human α4β7 integrin; [1]) [nM] | IC50 (α4β1; [2]) [nM] | IC50 (human α4β7 integrin; α4β7 IC50, α4β7-K562 cell adhesion to hMAdCAM-1) [nM] | IC50 (α4β1; α4β1 IC50, Ramos cell adhesion to hVCAM-1) [nM]
1 | COc1cnn(C)c(=O)c1-c1ccc(CC(NC(=O)C(NC(C)C)C(C)C)C(=O)O)cc1 (stereo not drawn) [Cpd 153, 2-(2-Isopropylamino-3-methyl-butyrylamino)-3-[4-(5-methoxy-2-methyl-3-oxo-2,3-dihydro-pyridazin-4-yl)-phenyl]-propionic acid] | 295 | 2050 |  | 
2 | COc1cnn(CCN2CCOCC2)c(=O)c1-c1ccc(C[C@H](NC(=O)[C@@H](NC(=O)OC(C)(C)C)[C@@H](C)O)C(=O)O)cc1 [Cpd 154] | 330 | > 5000 |  | 
3 | CN(C)c1cnn(C(C)(C)C)c(=O)c1-c1ccc(C[C@H](NC(=O)c2c(Cl)cccc2Cl)C(=O)O)cc1 [Cpd 155] | 332 | > 1000 |  | 
4 | CNc1cnn(C)c(=O)c1-c1ccc(C[C@H](NC(=O)c2c(Cl)cccc2Cl)C(=O)O)cc1 [Cpd 156] | 339 | > 5000 |  | 
5 | COc1cnn(C)c(=O)c1-c1ccc(C[C@H](NC(=O)CN(C)C(=O)OC(C)(C)C)C(=O)O)cc1 [Cpd 157] | 353 | > 5000 |  | 
6 | COc1cnn(C)c(=O)c1-c1ccc(C[C@H](NC(=O)C(N)C(C)C)C(=O)O)cc1 (stereo partly drawn) [Cpd 159] | 363 | > 5000 |  | 
7 | CC(C)(C)n1ncc(-n2cncn2)c(-c2ccc(C[C@H](NC(=O)c3c(Cl)cccc3Cl)C(=O)O)cc2)c1=O [Cpd 160] | 364 | 611 |  | 
8 | Cn1ncc(NCCCl)c(-c2ccc(C[C@H](NC(=O)c3c(Cl)cccc3Cl)C(=O)O)cc2)c1=O [Cpd 162] |  |  | 408 | > 5000
9 | COc1cnn(C)c(=O)c1-c1ccc(C[C@H](NC(=O)c2cc(=O)[nH]c(=O)[nH]2)C(=O)O)cc1 [Cpd 163] | 429 | > 5000 |  | 
10 | COc1cnn(C)c(=O)c1-c1ccc(C[C@H](NC(=O)C2CCN(C(=O)OCc3ccccc3)CC2)C(=O)O)cc1 [Cpd 164] | 457 | > 5000 |  | 
11 | COc1cnn(CCN2CCOCC2)c(=O)c1-c1ccc(C[C@H](NC(=O)[C@H](NC(=O)OC(C)(C)C)[C@H](C)O)C(=O)O)cc1 [Cpd 167] | 480 | > 5000 |  | 
12 | O=C(N[C@@H](Cc1ccc(-c2c(O)cn[nH]c2=O)cc1)C(=O)O)c1c(Cl)cccc1Cl [Cpd 168] | 490 | > 1000 |  | 
13 | COc1cnn(C)c(=O)c1-c1ccc(C[C@H](NC(=O)c2ccc(CO)cc2)C(=O)O)cc1 [Cpd 170] | 514 | 2810 |  | 
14 | COc1cnn(C)c(=O)c1-c1ccc(C[C@H](NC(=O)OCC(C)(C)C)C(=O)O)cc1 [Cpd 171] | 536 | > 5000 |  | 
15 | COc1cnn(C)c(=O)c1-c1ccc(C[C@H](NC(=O)OCc2ccccc2)C(=O)O)cc1 [Cpd 172, (S)-2-Benzyloxycarbonylamino-3-[4-(5-methoxy-2-methyl-3-oxo-2,3-dihydro-pyridazin-4-yl)-phenyl]-propionic acid] | 570 | > 5000 |  | 
16 | COc1cnn(C)c(=O)c1-c1ccc(C[C@H](NC(=O)CN(C)C)C(=O)O)cc1 [Cpd 173] | 575 | > 5000 |  | 
17 | COc1cnn(C)c(=O)c1-c1ccc(C[C@H](NC(=O)OCC(C)C)C(=O)O)cc1 [Cpd 175] | 591 | > 5000 |  | 
18 | COc1cnn(C)c(=O)c1-c1ccc(C[C@H](NC(=O)C2(NC(=O)OC(C)(C)C)CC2)C(=O)O)cc1 [Cpd 177] | 163 | > 5000 |  | 
